Assays:
[1] = tested on: hEpo expression in C2C12 mouse myoblast cell line; assay: hEpo expression (ELISA of supernatant) in C2C12 myoblasts transfected with stop-codon-mutated hEpo constructs, with or without aminoglycoside; format: cell-based; conditions: for induction of hEpo expression compared to cells not given aminoglycoside: 0.2 mg/ml aminoglycoside, stop-codon-mutated hEpo constructs in C2C12 cells; for read-through of the stop codon mutation: in vitro, C2C12 cells
Method: In this example, three different mutated human Epo genes (prepared as described in Example 1) were individually transfected into myoblasts and expression of the genes was subsequently regulated by application of two different aminoglycosides.
The C2C12 mouse myoblast cell line (ATCC) was maintained in DMEM, 10% fetal bovine serum, 1% penicillin/streptomycin and 1% glutamine.
C2C 12 cells were plated at […] on the afternoon before transfection. 15 μg of wildtype or mutated hEpo plasmid DNA was mixed with 50 μl of Lipofectamine (Gibco) and 2 mls of Opti-MEM (Gibco) and incubated at room temperature for 15 minutes for DNA/liposome complexes to form. Cells were washed twice with 5 mils of Opti-MEM. Two ml of Opti-MEM and the DNA/liposome complexes were added and incubated at 37° C. in 5% CO2 for 5 hours. Eight ml of growth medium (DMEM+10% FBS) was added to cells and incubated overnight at 37° C.
The following day, 10 mls of fresh growth medium was added to the cells with or without 0.2 mg/ml of one of two aminoglycosides: G418 (Sigma) or gentamycin sulfate (Sigma). Cells were allowed to incubate for an additional 72 hours and a sample of the supernatant was taken for transgene analysis at 24, 48, and 72 hours.
Supernatants from transfected cells were analyzed for hEpo expression using the Quantikine IV human Epo ELISA kit (R&D Systems). Samples were diluted within the linear range of the assay using specimen diluent and assayed using a microplate reader (Molecular Devices) at 450 nm.
In this example, a series of additional mutated human Epo constructs were prepared, into which stop codon mutations were introduced at different codon positions from those described in Example 1. These constructs were introduced into C2C12 mouse myoblasts as described in Example 2 and the inducibility of hEpo activity from these constructs using either gentamycin sulfate (GS) or G418 was examined as described in Example 2. The constructs were prepared by standard PCR mutagenesis, as described in Example 1, and introduced a stop codon mutation into the human Epo sequence at either nucleotide position 307 (pVR1012hEpo.307), position 434 (pVR1012hEpo.434), position 208 (pVR1012hEpo.208), position 214 (pVR1012hEpo.214) or position 199 (pVR1012hEpo. 199).
Data for constructs with mutations at either nucleotide position 437 (pVR1012hEpo.437), position 454 (pVR1012hEpo.454) or position 526 (pVR1012hEpo.526), prepared as described in Example 1, are included for comparison purposes.

[2] = tested on: naturally-occurring premature stop codon mutations in the dystrophin gene; conditions: mice; cited from earlier work

Compound	induction of hEpo expression compared to cells not given aminoglycoside [1]	read-through of the stop codon mutation [1] [%]	effective dosage [2] [mg/kg]
CN[C@@H]1[C@@H](O)[C@@H](O[C@@H]2[C@@H](O)[C@H](O[C@H]3O[C@H]([C@@H](C)O)[C@@H](O)[C@H](O)[C@H]3N)[C@@H](N)C[C@H]2N)OC[C@]1(C)O [G418]	20-50 fold	10	–
gentamycin sulfate	6-8 fold	3	17

Reference: patent publication US20020086427A1, “Inducible eukaryotic expression system that regulates protein translation” (priority 2000, published 2002)
